{"source": "patent US9289495B2", "about": "“Systems and methods for treatment of allergies and other indications” (Strategic Science & Technologies, LLC, priority 2011, dated 2016)", "origin": "cited, not measured here", "data": [{"smiles": "CN(C)CCOC(C)(c1ccccc1)c1ccccn1", "note": "(stereo not shown) [doxylamine]", "values": [{"measurement": "pKa", "value": "8.7-9.2"}]}]}
